Patent publication US20050123616A1, “Azithromycin multiparticulate dosage forms by liquid-based processes” (Pfizer Inc, priority 2003, published 2005)

Key:
[1] = amount of azithromycin dihydrate dissolved in coating solution, indicated by pH; type: physicochemical; conditions: aqueous hydroxypropyl cellulose coating solution, pH 9
Description: Multiparticulates were made by a spray-coating process using the following procedure. First, 30 g of the low reactivity carrier hydroxypropyl cellulose containing virtually no acid or ester substituents (KLUCEL EF from Aqualon, Inc. of Wilmington, Del.) were dissolved into 800 g of distilled water. To this solution was then added 119.6 g of crystalline azithromycin dihydrate having a degree of crystallinity of >99%.

[2] = distilled water at pH 6.9; cited from earlier work

amount of azithromycin dihydrate dissolved in the solution [1]: less than 1 mg/mL
SMILES: CC[C@H]1OC(=O)[C@H](C)[C@@H](O[C@H]2C[C@@](C)(OC)[C@@H](O)[C@H](C)O2)[C@H](C)[C@@H](O[C@@H]2O[C@H](C)C[C@H](N(C)C)[C@H]2O)[C@](C)(O)C[C@@H](C)CN(C)[C@H](C)[C@@H](O)[C@]1(C)O [azithromycin dihydrate, 9a-aza-9a-methyl-9-deoxo-9a-homoerythromycin A]
solubility [2]: 1100 µg/mL
